These results are taken from PMC11793105, “A kalihinol analog disrupts apicoplast function and vesicular trafficking in P. falciparum malaria” (Science (New York, N.Y.), 2024).

One test relates to P. falciparum cultures. As to the kind of experiment: Exponential killing rate at IC80. The class given is cell-based, Plasmodium falciparum. Particulars: triplicate.
Test [1] concerns P. falciparum 3D7 parasites. As to the kind of experiment: Isopentenyl pyrophosphate (IPP) rescue assay. The class given is cell-based, Plasmodium falciparum. Particulars: drug at IC80 for one IEC before IPP (200 μM). An excerpt: Fig. 2. […] Nuclei are stained with 4’,6-diamidino-2-phenylindole (DAPI; blue). […] (B) Dose-dependent interactions between MED6-189 (blue) and various antimalarials with known mechanisms of action (red). […] The regression line represents a nonlinear regression (variable slope with four parameters), with significant differences considered if P < 0.05. […] Isobologram curves are expected to be parallel to the diagonal for additive drug pairs, concave for synergistic drug pairs, and convex for antagonistic drug pairs. […] The analysis was performed using a two-way ANOVA, n = 3, with P < 0.05 significance.
IPP is a product of the MEP/DOXP pathway, and its supplementation reduces susceptibility to MEP inhibitors. […] Parasites were drugged at 80% inhibitory concentrations (IC80) for one IEC before IPP (200 μM) supplementation.

Consider `O=CN(O)CCCP(=O)(O)O` [fosmidomycin, reference compound], for which the “Exponential killing rate k = (1/t)* log10(N0/Nt)” value in the test with P. falciparum cultures (at IC80, 48 HPS) came to 0.007019; in the test with P. falciparum cultures (at IC80, 72 HPS), 0.01081; with P. falciparum cultures (at IC80, 100 HPS), 0.008797. In addition, in test [1], the “rescue of parasites by IPP supplementation” value was “survived the second IEC and initiated a third cycle”.
